System: ASPS-1 complex tumor spheroids, viability
Assay: Anticancer human tumor ASPS-1 cell line growth inhibition;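 also: spheroids exposed to agents for 7 days after 3 days of growth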;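 as to viability, T/C: 100% = DMSO vehicle treated spheroids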
Conditions: for IC50: curve of first compound; for viability, T/C: stronger effect = lower value
How it was run: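 Single agents and combinations were tested on spheroids built from tumor cells plus HUVEC and hMSC, at half-log dilutions starting at or near clinical Cmax, else 10 microM; final DMSO 0.25% (v/v).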

CC(C)n1c(=O)n(C)c2cnc3cc(F)c(-c4ccc(OCCCN5CCCCC5)nc4)cc3c21 + Cn1nnc2c(C(N)=O)ncn2c1=O
IC50 (second compound 1 µM): 8400 nM
IC50 (second compound 3.16 µM): 8140 nM
IC50 (second compound 10 µM): 2560 nM
IC50 (second compound 31.6 µM): 1580 nM
IC50 (second compound 100 µM): 386 nM
viability, T/C (second compound 1 µM, first compound 0.0316 µM): 106%
viability, T/C (second compound 1 µM, first compound 0.1 µM): 104%
viability, T/C (second compound 1 µM, first compound 0.316 µM): 102%
viability, T/C (second compound 1 µM, first compound 1 µM): 102%
viability, T/C (second compound 1 µM, first compound 3.16 µM): 93.4%
viability, T/C (second compound 1 µM, first compound 10 µM): 42.1%
viability, T/C (second compound 3.16 µM, first compound 0.0316 µM): 102%
viability, T/C (second compound 3.16 µM, first compound 0.1 µM): 102%
viability, T/C (second compound 3.16 µM, first compound 0.316 µM): 103%
viability, T/C (second compound 3.16 µM, first compound 1 µM): 88.7%
viability, T/C (second compound 3.16 µM, first compound 3.16 µM): 82.4%
viability, T/C (second compound 3.16 µM, first compound 10 µM): 43%
viability, T/C (second compound 10 µM, first compound 0.0316 µM): 91.4%
viability, T/C (second compound 10 µM, first compound 0.1 µM): 79.8%
viability, T/C (second compound 10 µM, first compound 0.316 µM): 83.5%
viability, T/C (second compound 10 µM, first compound 1 µM): 86.7%
viability, T/C (second compound 10 µM, first compound 3.16 µM): 42%
viability, T/C (second compound 10 µM, first compound 10 µM): 25.4%
viability, T/C (second compound 31.6 µM, first compound 0.0316 µM): 81.1%
viability, T/C (second compound 31.6 µM, first compound 0.1 µM): 78.1%
viability, T/C (second compound 31.6 µM, first compound 0.316 µM): 77.7%
viability, T/C (second compound 31.6 µM, first compound 1 µM): 54.7%
viability, T/C (second compound 31.6 µM, first compound 3.16 µM): 39.3%
viability, T/C (second compound 31.6 µM, first compound 10 µM): 19.9%
viability, T/C (second compound 100 µM, first compound 0.0316 µM): 74.5%
viability, T/C (second compound 100 µM, first compound 0.1 µM): 60.5%
viability, T/C (second compound 100 µM, first compound 0.316 µM): 56.1%
viability, T/C (second compound 100 µM, first compound 1 µM): 41.2%
viability, T/C (second compound 100 µM, first compound 3.16 µM): 24.4%
viability, T/C (second compound 100 µM, first compound 10 µM): 20.2%
